The values below come from the supplement of paper PMC7661543.

Holding throughout (test): relative cell number vs DMSO control (72 h) (% of DMSO); higher = less growth inhibition (more cells)
Holding throughout (conditions): sgRNA knockout: sgNT

The subject of assay [1] is ZR-75-1. The protocol: (§1)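 QMAP-Seq: a pool of 5 breast cancer cell lines (ZR-75-1, SKBR3, HCC-38, MDA-MB-231, BT-20), each carrying 12 doxycycline-inducible Cas9 sgRNA perturbations (11 knockouts plus non-targeting sgNT), was treated with compounds for 72 h at four 10-fold doses (10 nM-10 uM or 1 nM-1 uM range). Barcodes were amplified and sequenced, and cell number was interpolated from 293T spike-in standard curves. The result is expressed as % of the median of DMSO wells. Two biological replicates.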

The subject of assay [2] is SKBR3. On the procedure: as §1
Assay [3] deals with BT-20. On the procedure: as §1
For assay [4], the system named is HCC-38. The protocol: as §1
The subject of assay [5] is MDA-MB-231. The protocol:
as §1

± gives the standard deviation of the averaged measurements.

For the molecule `O=C1CCC(N2C(=O)c3ccccc3C2=O)C(=O)N1` (stereo not given) [Thalidomide], the relative cell number in assay [1] (10 nM) was 79.7 ± 19; in assay [1] (100 nM), 90.8 ± 6.8; in assay [1] (1000 nM) it was 74.2 ± 13; in assay [1] (10000 nM), 97.2 ± 55; in assay [2] (10 nM) it was 109 ± 39; in assay [2] (100 nM), 59.4 ± 1.9. For the same molecule, the relative cell number in assay [2] (1000 nM) is 115 ± 17; in assay [2] (10000 nM), 106 ± 2.4; in assay [3] (10 nM), 118 ± 11; in assay [3] (100 nM), 91 ± 0.81; in assay [3] (1000 nM), 114 ± 18; in assay [3] (10000 nM), 113 ± 9. The relative cell number in assay [4] (10 nM) came to 108 ± 8.4; in assay [4] (100 nM), 95.3 ± 1.2; in assay [4] (1000 nM), 117 ± 4.4; in assay [4] (10000 nM), 115 ± 10; in assay [5] (10 nM), 128 ± 37; in assay [5] (100 nM) it was 74.8 ± 24. Also, the relative cell number amounted to 102 ± 29 in assay [5] (1000 nM) and 124 ± 19 in assay [5] (10000 nM).
Take `Cc1ccc(NC(=O)c2ccc(CN3CCN(C)CC3)cc2)cc1Nc1nc(-c2cccnc2)cs1` [Masitinib]: the relative cell number in assay [1] (10 nM) turned out to be 70.6 ± 28; in assay [1] (100 nM), 76.2 ± 9.5; in assay [1] (1000 nM), 94.7 ± 34; in assay [1] (10000 nM) it was 34.2 ± 1.2; in assay [2] (10 nM), 78.7 ± 58; in assay [2] (100 nM), 99.4 ± 23. For the same molecule, the relative cell number in assay [2] (1000 nM) worked out at 67.4 ± 6.4; in assay [2] (10000 nM), 66.6 ± 0.77; in assay [3] (10 nM), 92.1 ± 2.6; in assay [3] (100 nM), 80.9 ± 25; in assay [3] (1000 nM), 95.2 ± 38; in assay [3] (10000 nM), 70.8 ± 23. The relative cell number in assay [4] (10 nM) came to 106 ± 6.1; in assay [4] (100 nM), 78.71 ± 0.36; in assay [4] (1000 nM), 76.6 ± 17; in assay [4] (10000 nM), 97.6 ± 2.4; in assay [5] (10 nM), 91 ± 41; in assay [5] (100 nM), 74.9 ± 12. The relative cell number amounted to 64.2 ± 30 in assay [5] (1000 nM) and 50.7 ± 4.3 in assay [5] (10000 nM).
Turning to `Cc1ccc2c(c1)C(=O)C1(O)CCN(c3ccccc3)C1=N2` (stereo not given) [Blebbistatin], the relative cell number is 108 ± 9.9 in assay [1] (10 nM); 112 ± 9.8 in assay [1] (100 nM); 98.1 ± 39 in assay [1] (1000 nM); 84.1 ± 7.3 in assay [1] (10000 nM); 114 ± 20 in assay [2] (10 nM); 111 ± 16 in assay [2] (100 nM). Also, the relative cell number in assay [2] (1000 nM) is 126 ± 11; in assay [2] (10000 nM), 96.52 ± 0.14; in assay [3] (10 nM), 115.9 ± 0.31; in assay [3] (100 nM), 128 ± 6.2; in assay [3] (1000 nM) it was 130 ± 4; in assay [3] (10000 nM), 125 ± 46. Further, the relative cell number in assay [4] (10 nM) turned out to be 125 ± 10; in assay [4] (100 nM), 118 ± 4.2; in assay [4] (1000 nM), 115 ± 13; in assay [4] (10000 nM), 69.5 ± 7.5; in assay [5] (10 nM), 110 ± 16; in assay [5] (100 nM) it was 138.4 ± 0.51. The figures for the relative cell number in assay [5] (1000 nM) and in assay [5] (10000 nM) were 144 ± 49 and 97 ± 12, respectively.
`CC(C)OC(=O)C1=CN(C(=O)c2ccc(F)c(F)c2)CC(C)(C)c2c1[nH]c1ccccc21`: the relative cell number in assay [1] (10 nM) is 119 ± 27; in assay [1] (100 nM) it was 123 ± 59; in assay [1] (1000 nM), 101 ± 44; in assay [1] (10000 nM) it was 102 ± 58; in assay [2] (10 nM) it was 81.3 ± 2.4; in assay [2] (100 nM), 98.8 ± 33. In addition, the relative cell number in assay [2] (1000 nM) was 77.9 ± 12; in assay [2] (10000 nM), 89.9 ± 24; in assay [3] (10 nM), 98.9 ± 6.3; in assay [3] (100 nM) it was 70 ± 5.8; in assay [3] (1000 nM) it was 105 ± 24; in assay [3] (10000 nM), 99.6 ± 25. Further, the relative cell number in assay [4] (10 nM) worked out at 94.8 ± 12; in assay [4] (100 nM) it was 89.2 ± 8.8; in assay [4] (1000 nM) it was 95.2 ± 4.8; in assay [4] (10000 nM), 90.8 ± 6; in assay [5] (10 nM), 86.2 ± 4.9; in assay [5] (100 nM), 72.1 ± 4.9. In addition, the relative cell number is 83.4 ± 6.3 in assay [5] (1000 nM) and 130 ± 24 in assay [5] (10000 nM).
For the molecule `Nc1ccccc1NC(=O)c1ccc(CNC(=O)OCc2cccnc2)cc1` [Entinostat], the relative cell number was determined as 75.3 ± 4.2 in assay [1] (10 nM); 103 ± 25 in assay [1] (100 nM); 32.6 ± 24 in assay [1] (1000 nM); 36.1 ± 11 in assay [1] (10000 nM); 76.3 ± 10 in assay [2] (10 nM); 102 ± 18 in assay [2] (100 nM). In addition, the relative cell number in assay [2] (1000 nM) is 30.3 ± 5.2; in assay [2] (10000 nM), 5.86 ± 2; in assay [3] (10 nM), 105 ± 2.6; in assay [3] (100 nM), 103 ± 22; in assay [3] (1000 nM) it was 50.9 ± 7.8; in assay [3] (10000 nM), 19 ± 12. Moreover, the relative cell number in assay [4] (10 nM) turned out to be 106 ± 1.9; in assay [4] (100 nM) it was 105 ± 3.4; in assay [4] (1000 nM), 64.8 ± 13; in assay [4] (10000 nM), 36.8 ± 3.2; in assay [5] (10 nM), 90.4 ± 17; in assay [5] (100 nM) it was 115 ± 39. The relative cell number in assay [5] (1000 nM) worked out at 39.4 ± 5.7; in assay [5] (10000 nM) it was 12.5 ± 5.6.
Turning to `CC(C)(C)c1ccc(S(=O)(=O)NCc2ccc(C(=O)Nc3cccnc3)cc2)cc1` [STF31], the relative cell number worked out at 112 ± 27 in assay [1] (10 nM); 92.7 ± 8 in assay [1] (100 nM); 50.2 ± 2 in assay [1] (1000 nM); 63.1 ± 33 in assay [1] (10000 nM); 97.4 ± 8.6 in assay [2] (10 nM); 83.52 ± 0.49 in assay [2] (100 nM). The relative cell number turned out to be 74.8 ± 10 in assay [2] (1000 nM); 44.1 ± 5.7 in assay [2] (10000 nM); 101 ± 4.2 in assay [3] (10 nM); 96.7 ± 4.5 in assay [3] (100 nM); 85.6 ± 20 in assay [3] (1000 nM); 72.8 ± 18 in assay [3] (10000 nM). Further, the relative cell number in assay [4] (10 nM) stood at 90.7 ± 9.9; in assay [4] (100 nM) it was 82.5 ± 12; in assay [4] (1000 nM), 93.2 ± 7.9; in assay [4] (10000 nM) it was 76.6 ± 10; in assay [5] (10 nM), 110 ± 16; in assay [5] (100 nM), 93.4 ± 15. For the same molecule, the results for the relative cell number in assay [5] (1000 nM) and in assay [5] (10000 nM) were 61.7 ± 12 and 27.3 ± 3.5, respectively.
